According to patent publication US20080318326A1 (priority 2005, published 2008):
Peptide text beside a SMILES is read from it.

Experiment: Alamethicin channel currents across PTFE-supported bilayer lipid membrane
Assay type: biochemical
Conditions: alamethicin 100 ng/ml on both sides of PTFE support matrix
Protocol: Alamethicin is a peptide that spontaneously inserts itself into a bilayer lipid membrane. Molecules of alamethicin can diffuse within the plane of the membrane and may associate with other alamethicin molecules to form a channel for the passage of small ions when a voltage is applied across a bilayer lipid membrane.
Given the above, alamethicin was used as an indicator of bilayer lipid membrane formation success.
In this example, alamethicin is dissolved in 100% ethanol (5 μg/ml) and stored at 4° C. After the bilayer lipid membrane is formed, alamethicin is added to solutions on both sides of the PTFE support matrix 11 to a final concentration of 100 ng/ml. Electrochemical measurements were then carried out using a two electrode system. Silver/silver chloride wires were used as the working and reference electrodes and based on measurements taken, channels were observed after 10 minutes.
The nature of the electrical current caused by the flow of ions is understood to be dependent on: • 1. The concentration of ions bathing the bilayer lipid membrane, • 2. The voltage applied and, • 3. The concentration of alamethicin.

With CC(=O)NC(C)(C)C(=O)N1CCC[C@H]1C(=O)NC(C)(C)C(=O)N[C@@H](C)C(=O)NC(C)(C)C(=O)N[C@@H](C)C(=O)N[C@@H](CCC(N)=O)C(=O)NC(C)(C)C(=O)N[C@H](C(=O)NC(C)(C)C(=O)NCC(=O)N[C@@H](CC(C)C)C(=O)NC(C)(C)C(=O)N1CCC[C@H]1C(=O)N[C@H](C(=O)NC(C)(C)C(=O)NC(C)(C)C(=O)N[C@@H](CCC(=O)O)C(=O)N[C@@H](CCC(N)=O)C(=O)N[C@H](CO)Cc1ccccc1)C(C)C)C(C)C [alamethicin] (HELM PEPTIDE1{[ac].[Aib].P.[Aib].A.[Aib].A.Q.[Aib].V.[Aib].G.L.[Aib].P.V.[Aib].[Aib].E.Q.[OC[C@H](Cc1ccccc1)N[*:1]]}$$$$V2.0) the “time after which channels were observed” value was 10 min.
